# Structures can show the parent of a compound that is named as a salt.
# Experiments:
# [1] = tested on: neuroleptically treated rats; test: ovulation after subcutaneous LH-RH in neuroleptically treated rats; format: in vivo, rat
# Description: I. -- Formulations containing the polypeptide, gonadorelin also known as luteinizing hormone-releasing hormone (LH-RH) were evaluated for potency.
# Prepared by hydrating each gum separately at 80° C. for 30 minutes and treated with a cell disrupter for 2 minutes. The gum solutions were mixed in the presence of hydrochloric acid by adjusting the pH to 3. Chlorobutanol was then dissolved in the mixed gum solution and filtered. LH-RH was then dissolved in the gum solution over a dose range of 0 to 500 nanograms.
# The test solutions were administered subcutaneously to neuroleptically treated rats.
# [2] = intranasal evaluation of LH-RH gum formulations; format: in vivo; conditions: 2% LH-RH, […] locust bean gum, […] xanthan gum, 0.5-1% phenylethyl alcohol
# Description: II. -- Formulations containing 2% LH-RH, 0.25% locust bean gum, 0.25% xanthan gum, and 0.5-1% phenylethyl alcohol were also prepared and evaluated intranasally.
# Rabbits' eyes = test: average miotic response intensity (pilocarpine hydrochloride formulations); format: in vivo, rabbit
# Description: rabbit's eyes were treated with 2 drops of the test solution, and pupillary diameters were measued with a cathetometer. The miotic response intensity was computed by taking the difference in pupillary diameters at zero time and time "T" (i.e., hours after instillation) and dividing it by the pupillary diameter at zero time. The table below illustrates the average miotic response for all eyes as a function of hours after instillation.
# Formulations containing pilocarpine hydrochloride were prepared as in Example 2 and are illustrated as follows: […]
smiles,measurement,setting,value
CC(C)C[C@H](NC(=O)CNC(=O)[C@H](Cc1ccc(O)cc1)NC(=O)[C@H](CO)NC(=O)[C@H](Cc1c[nH]c2ccccc12)NC(=O)[C@H](Cc1cnc[nH]1)NC(=O)[C@@H]1CCC(=O)N1)C(=O)N[C@@H](CCCNC(=N)N)C(=O)N1CCC[C@H]1C(=O)NCC(N)=O [LH-RH],Number of Ova Found,"[1]; 31 NG s.c., Control (No Gums)",0
same,Number of Rats Ovulating,"[1]; 31 NG s.c., Control (No Gums)",0/10
same,Number of Ova Found,"[1]; 31 NG s.c., with 0.5% Gums",0
same,Number of Rats Ovulating,"[1]; 31 NG s.c., with 0.5% Gums",0/10
same,Number of Ova Found,"[1]; 62 NG s.c., Control (No Gums)",7
same,Number of Rats Ovulating,"[1]; 62 NG s.c., Control (No Gums)",2/10
same,Number of Ova Found,"[1]; 62 NG s.c., with 0.5% Gums",8.7 ± 1.4
same,Number of Rats Ovulating,"[1]; 62 NG s.c., with 0.5% Gums",3/10
same,Number of Ova Found,"[1]; 125 NG s.c., Control (No Gums)",8 ± 1.2
same,Number of Rats Ovulating,"[1]; 125 NG s.c., Control (No Gums)",5/10
same,Number of Ova Found,"[1]; 125 NG s.c., with 0.5% Gums",10.6 ± 0.6
same,Number of Rats Ovulating,"[1]; 125 NG s.c., with 0.5% Gums",7/10
same,Number of Ova Found,"[1]; 250 NG s.c., Control (No Gums)",10.1 ± 0.5
same,Number of Rats Ovulating,"[1]; 250 NG s.c., Control (No Gums)",8/10
same,Number of Ova Found,"[1]; 250 NG s.c., with 0.5% Gums",11.2 ± 0.7
same,Number of Rats Ovulating,"[1]; 250 NG s.c., with 0.5% Gums",9/10
same,Number of Ova Found,"[1]; 500 NG s.c., Control (No Gums)",10.5 ± 0.6
same,Number of Rats Ovulating,"[1]; 500 NG s.c., Control (No Gums)",10/10
same,Number of Ova Found,"[1]; 500 NG s.c., with 0.5% Gums",11.5 ± 0.5
same,Number of Rats Ovulating,"[1]; 500 NG s.c., with 0.5% Gums",10/10
same,LH release and induction of ovulation,"[1]; s.c., fluphenazine dihydrochloride pre-treated proestrous rats",released LH and subsequently induced ovulation
same,LH-RH release after intranasal administration,[2],stimulates LH-RH release at a level greater than formulations without the mixed gums
CC[C@@H]1C(=O)OC[C@@H]1Cc1cncn1C [pilocarpine hydrochloride],potentiation of miotic response by gums,Rabbits' eyes; combined locust bean and xanthan gums,potentiate the miotic response
CC[C@@H]1C(=O)OC[C@@H]1Cc1cncn1C [pilocarpine],possible reduction of dose with gums,Rabbits' eyes; combined use of locust bean and xanthan gums,up to one fifth

# Reference: patent US4136173A (priority 1977, dated 1979)
